According to ChEMBL document CHEMBL5126561, “New pyrazole-tetrazole hybrid compounds as potent α-amylase and non-enzymatic glycation inhibitors” (Bioorg Med Chem Lett, 2022):
≈ marks a conversion by molar mass, not a printed value.

Columns and labels:
Alpha amylase = biological target: T1, Alpha amylase (Homo sapiens, UniProt P0DUB6); assay: Inhibition of alpha-amylase (unknown origin) assessed as reduction in conversion of starch to glucose preincubated for 10 mins followed by substrate addition and measured after 20 mins by DNSA reagent based spectrophotometric analysis
T1 sequence (P0DUB6 whole entry): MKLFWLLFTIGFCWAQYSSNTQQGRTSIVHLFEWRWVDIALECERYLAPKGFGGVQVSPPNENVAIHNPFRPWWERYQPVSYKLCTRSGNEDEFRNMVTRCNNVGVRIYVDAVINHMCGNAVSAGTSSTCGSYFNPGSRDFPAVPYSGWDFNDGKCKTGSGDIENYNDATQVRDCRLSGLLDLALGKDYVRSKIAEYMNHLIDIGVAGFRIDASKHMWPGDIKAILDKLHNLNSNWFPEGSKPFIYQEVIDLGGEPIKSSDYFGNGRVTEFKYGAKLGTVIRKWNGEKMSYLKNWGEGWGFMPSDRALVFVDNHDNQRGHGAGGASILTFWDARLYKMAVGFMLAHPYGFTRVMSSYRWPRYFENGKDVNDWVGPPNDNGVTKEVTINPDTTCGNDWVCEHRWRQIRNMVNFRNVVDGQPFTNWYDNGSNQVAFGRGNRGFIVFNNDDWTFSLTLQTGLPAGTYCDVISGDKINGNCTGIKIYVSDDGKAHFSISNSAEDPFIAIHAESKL

Hemoglobin HbA = Hemoglobin HbA (Homo sapiens, UniProt P68871+P69905); assay: Inhibition of non-enzymatic glycation in hemoglobin (unknown origin) by spectrophotometric analysis; assay type: protein-complex assay
Chain of Hemoglobin HbA (P69905 whole entry): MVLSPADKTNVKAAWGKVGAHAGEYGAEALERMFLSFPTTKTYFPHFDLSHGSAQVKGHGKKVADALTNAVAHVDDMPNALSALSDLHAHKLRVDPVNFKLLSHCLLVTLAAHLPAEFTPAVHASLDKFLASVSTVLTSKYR
Chain of Hemoglobin HbA (P68871 whole entry): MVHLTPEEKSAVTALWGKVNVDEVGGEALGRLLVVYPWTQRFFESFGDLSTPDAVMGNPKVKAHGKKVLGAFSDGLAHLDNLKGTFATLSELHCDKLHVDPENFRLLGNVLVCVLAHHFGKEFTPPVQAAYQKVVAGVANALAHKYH

[1] = Lipophilicity, logP of compound; assay type: physicochemical; settings: octanol/water
[2] = biological target: Alpha amylase (Homo sapiens) (UniProt P0DUB6); assay: Potency index, ratio of acarbose IC50 to test compound IC50 for inhibition of alpha-amylase (unknown origin) assessed as reduction in conversion of starch to glucose preincubated for 10 mins followed by substrate addition and measured after 20 mins by DNSA reagent based spectrophotometric analysis; settings: time 30.0 min
[3] = biological target: Hemoglobin HbA (Homo sapiens) (UniProt P69905+P68871); assay: Potency index, ratio of gallic acid IC50 to test compound IC50 for inhibition of non-enzymatic glycation in hemoglobin (unknown origin) by spectrophotometric analysis; assay type: protein-complex assay
Chain of Hemoglobin HbA (Homo sapiens) (P68871 2-147 partner limits assumed): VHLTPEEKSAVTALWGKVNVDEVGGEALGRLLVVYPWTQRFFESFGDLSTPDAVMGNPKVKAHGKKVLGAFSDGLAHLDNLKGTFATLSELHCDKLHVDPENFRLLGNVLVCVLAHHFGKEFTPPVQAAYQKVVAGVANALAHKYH
Chain of Hemoglobin HbA (Homo sapiens) (P69905 2-142 limits assumed): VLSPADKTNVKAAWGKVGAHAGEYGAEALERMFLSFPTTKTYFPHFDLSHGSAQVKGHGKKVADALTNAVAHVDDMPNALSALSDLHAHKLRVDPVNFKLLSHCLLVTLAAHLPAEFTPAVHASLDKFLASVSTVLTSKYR

| Compound | IC50 (Alpha amylase) | IC50 (Hemoglobin HbA) [mM] | logP [1] | Ratio IC50 [2] | Ratio IC50 [3] |
| --- | --- | --- | --- | --- | --- |
| Cc1cc(Cn2nnnc2-c2ccccn2)n[nH]1 | 4.82 10^-3mg/ml | 0.352 | 0.86 | 70 | 2 |
| O=C(O)c1cc(O)c(O)c(O)c1 [GALLIC ACID] | – | 0.999 | – | – | – |
| CCn1nc(Cn2nnnc2Cc2ccccc2)cc1C | 0.023 mg/mL (≈ 0.0815 mM) | 1.2 | 2.1 | 15 | – |
| Cc1cc(Cn2nnc(Cc3ccccc3)n2)n[nH]1 | 5.59 mg/mL (≈ 22 mM) | 1.06 | 2.5 | – | – |
| Cc1cc(Cn2nnc(-c3ccccn3)n2)n[nH]1 | 0.95 mg/mL (≈ 3.94 mM) | 1.95 | 1.69 | – | – |
| CCn1nc(Cn2nnc(Cc3ccccc3)n2)cc1C | 2.36 mg/mL (≈ 8.36 mM) | 1.97 | 2.88 | – | – |

Continued by falling IC50 (Hemoglobin HbA), values first:

| IC50 (Alpha amylase) | IC50 (Hemoglobin HbA) [mM] | logP [1] | Ratio IC50 [2] | Ratio IC50 [3] | Compound |
| --- | --- | --- | --- | --- | --- |
| 0.54 mg/mL (≈ 2.01 mM) | 2.52 | 2.08 | – | – | CCn1nc(Cn2nnc(-c3ccccn3)n2)cc1C |
| 1.97 mg/mL (≈ 7.75 mM) | 1.02 | 1.62 | – | – | Cc1cc(Cn2nnnc2Cc2ccccc2)n[nH]1 |
| 1.13 10^-4mg/ml | 0.223 | 1.34 | 3010 | 2.8 | CCn1nc(Cn2nnnc2-c2ccccn2)cc1C |
